US5466671A, “Apidaecin-type peptide antibiotics with improved activities and/or different antibacterial spectrum” (priority 1994, dated 1995)
Residues, ends and D or L forms follow the SMILES beside them.

Tests used:
Enterobacter cloacae = test: Inhibition zone assay (agar plate); assay type: cell-based; settings: for Inhibition zones: in mm diameter: 50 nanomoles per well (3 mm diameter)
Salmonella typhimurium = test: Inhibition zone assay (agar plate); assay type: cell-based; settings: for Inhibition zones: in mm diameter: 50 nanomoles per well (3 mm diameter)
Klebsiella pneumoniae = test: Inhibition zone assay (agar plate); assay type: cell-based; settings: for Inhibition zones: in mm diameter: 50 nanomoles per well (3 mm diameter)
E. coli D22 = assay type: cell-based; settings: 50 nanomoles per well (3 mm diameter)
[1] = system: Agrobacterium tumefaciens; test: Inhibition zone assay (agar plate); assay type: cell-based; settings: 50 nanomoles per well (3 mm diameter)
[2] = system: Escherichia coli (ATCC11775); test: Inhibition zone assay (agar plate); assay type: cell-based; settings: for Inhibition zones: in mm diameter: 50 nanomoles per well (3 mm diameter)
Erwinia amylovora = test: Inhibition zone assay (agar plate); assay type: cell-based; settings: for Inhibition zones: in mm diameter: 50 nanomoles per well (3 mm diameter)
Salmonella typhi = assay type: cell-based; settings: for Inhibition zones: in mm diameter: 50 nanomoles per well (3 mm diameter)
[3] = system: Acinetobacter calcoaceticus; test: Inhibition zone assay (agar plate); assay type: cell-based; settings: 50 nanomoles per well (3 mm diameter)
Shigella dysenteriae = assay type: cell-based; settings: for Inhibition zones: in mm diameter: 50 nanomoles per well (3 mm diameter)
Pseudomonas syringae = test: Inhibition zone assay (agar plate); assay type: cell-based; settings: for Inhibition zones: in mm diameter: 50 nanomoles per well (3 mm diameter)
Morganella morganii = test: Inhibition zone assay (agar plate); assay type: cell-based; settings: 50 nanomoles/well, 3 mm wells
E. coli 11775 = test: Minimal inhibitory concentration (liquid culture); settings: a-b = highest concentration with growth - lowest without growth
Y. enterocolitica = test: Minimal inhibitory concentration (liquid culture); settings: inoculum 5000 CFU/ml; a-b = highest concentration with growth - lowest without growth
Rhizobium meliloti = test: Inhibition zone assay (agar plate); assay type: cell-based; settings: 50 nanomoles/well, 3 mm wells
A. calcoaceticus = test: Minimal inhibitory concentration (liquid culture); settings: inoculum 16 × 10^6 CFU/ml; a-b = highest concentration with growth - lowest without growth
E. coli 23802 = test: Minimal inhibitory concentration (liquid culture); settings: inoculum 5000 CFU/ml; a-b = highest concentration with growth - lowest without growth
E. coli 25922 = test: Minimal inhibitory concentration (liquid culture); settings: inoculum 1100 CFU/ml; a-b = highest concentration with growth - lowest without growth
E. coli Apid^R = test: Minimal inhibitory concentration (liquid culture); assay type: cell-based; settings: a-b = highest concentration with growth - lowest without growth
Description: For details see `Experimental Procedures`.

S. typhimurium = test: Minimal inhibitory concentration (liquid culture); settings: inoculum 8 × 10^6 CFU/ml; a-b = highest concentration with growth - lowest without growth
Yersinia enterocolitica = test: Inhibition zone assay (agar plate); assay type: cell-based; settings: 50 nanomoles/well, 3 mm wells
M. morganii = test: Minimal inhibitory concentration (liquid culture); settings: inoculum 400 CFU/ml; a-b = highest concentration with growth - lowest without growth
[4] = agar plate, 50 nanomoles/well, 3 mm wells

CC[C@H](C)[C@H](NC(=O)[C@@H]1CCCN1C(=O)[C@@H](NC(=O)[C@H](CCC(N)=O)NC(=O)[C@@H]1CCCN1C(=O)[C@H](CO)NC(=O)[C@@H]1CCCN1C(=O)[C@H](CCCNC(=N)N)NC(=O)[C@@H](N)CO)C(C)C)C(=O)N[C@@H](CCCNC(=N)N)C(=O)N1CCC[C@H]1C(=O)N[C@@H](CO)C(=O)N[C@@H](CCC(N)=O)C(=O)N1CCC[C@H]1C(=O)N[C@@H](CCCNC(=N)N)C(=O)N1CCC[C@H]1C(=O)N[C@@H](CCC(N)=O)C(=O)N1CCC[C@H]1C(=O)NCC(=O)N[C@@H](CCCCN)C(=O)N1CCC[C@H]1C(=O)N[C@@H](CCCNC(=N)N)C(=O)N1CCC[C@H]1C(=O)N[C@@H](CCC(N)=O)C(=O)N[C@@H](CCC(N)=O)C(=O)N[C@H](C(=O)N1CCC[C@H]1C(=O)N1CCC[C@H]1C(=O)N[C@@H](CCCNC(=N)N)C(=O)N[C@H](C(=O)N1CCC[C@H]1C(=O)N[C@@H](Cc1c[nH]cn1)C(=O)N1CCC[C@H]1C(=O)N[C@@H](CCCNC(=N)N)C(=O)N[C@@H](CC(C)C)C(=O)O)[C@@H](C)O)C(C)C [PAB-GT, SRPSPQVPIRPSQPRPQPGKPRPQQVPPRTPHPRL] (H-SRPSPQVPIRPSQPRPQPGKPRPQQVPPRTPHPRL-OH)
Inhibition zones: in mm diameter (Enterobacter cloacae): 9 mm
Inhibition zones: in mm diameter (Salmonella typhimurium): 6 mm
Inhibition zones: in mm diameter (Klebsiella pneumoniae): 8 mm
Inhibition zones: in mm diameter (E. coli D22): 13 mm
Inhibition zones: in mm diameter [1]: 5 mm
Inhibition zones: in mm diameter [2]: 8 mm
Inhibition zones: in mm diameter (Erwinia amylovora): 6 mm
Inhibition zones: in mm diameter (Salmonella typhi): 12 mm
Inhibition zones: in mm diameter [3]: 8 mm
Inhibition zones: in mm diameter (Shigella dysenteriae): 10 mm
Inhibition zones: in mm diameter (Pseudomonas syringae): 5 mm

CC[C@H](C)[C@H](NC(=O)[C@@H]1CCCN1C(=O)[C@@H](NC(=O)[C@H](CCC(N)=O)NC(=O)[C@@H]1CCCN1C(=O)[C@H](CO)NC(=O)[C@@H]1CCCN1C(=O)[C@H](CCCNC(=N)N)NC(=O)[C@@H](N)CO)C(C)C)C(=O)N[C@@H](CCCNC(=N)N)C(=O)N1CCC[C@H]1C(=O)N[C@@H](CO)C(=O)N[C@@H](CCC(N)=O)C(=O)N1CCC[C@H]1C(=O)N[C@@H](CCCNC(=N)N)C(=O)N1CCC[C@H]1C(=O)N[C@@H](CCC(N)=O)C(=O)N1CCC[C@H]1C(=O)N[C@@H](Cc1ccccc1)C(=O)N[C@@H](CCCCN)C(=O)N1CCC[C@H]1C(=O)N[C@@H](CCCNC(=N)N)C(=O)N1CCC[C@H]1C(=O)N[C@@H](CCC(N)=O)C(=O)N[C@@H](CCC(N)=O)C(=O)N[C@H](C(=O)N1CCC[C@H]1C(=O)N1CCC[C@H]1C(=O)N[C@@H](CCCNC(=N)N)C(=O)N1CCC[C@H]1C(=O)N1CCC[C@H]1C(=O)N[C@@H](Cc1c[nH]cn1)C(=O)N1CCC[C@H]1C(=O)N[C@@H](CCCNC(=N)N)C(=O)N[C@@H](CC(C)C)C(=O)O)C(C)C [PAB-FP, SRPSPQVPIRPSQPRPQPFKPRPQQVPPRPPHPRL] (H-SRPSPQVPIRPSQPRPQPFKPRPQQVPPRPPHPRL-OH)
Inhibition zones: in mm diameter (Enterobacter cloacae): 11 mm
Inhibition zones: in mm diameter (Salmonella typhimurium): 7 mm
Inhibition zones: in mm diameter (Klebsiella pneumoniae): 8 mm
Inhibition zones: in mm diameter (E. coli D22): 14 mm
Inhibition zones: in mm diameter [1]: 7 mm
Inhibition zones: in mm diameter [2]: 10 mm
Inhibition zones: in mm diameter (Erwinia amylovora): 5 mm
Inhibition zones: in mm diameter (Salmonella typhi): 13 mm
Inhibition zones: in mm diameter [3]: 8 mm
Inhibition zones: in mm diameter (Shigella dysenteriae): 12 mm

CC[C@H](C)[C@H](NC(=O)[C@@H]1CCCN1C(=O)[C@@H](NC(=O)[C@H](CCC(N)=O)NC(=O)[C@@H]1CCCN1C(=O)[C@H](CO)NC(=O)[C@@H]1CCCN1C(=O)[C@H](CCCNC(=N)N)NC(=O)[C@@H](N)CO)C(C)C)C(=O)N[C@@H](CCCNC(=N)N)C(=O)N1CCC[C@H]1C(=O)N[C@@H](CO)C(=O)N[C@@H](CCC(N)=O)C(=O)N1CCC[C@H]1C(=O)N[C@@H](CCCNC(=N)N)C(=O)N1CCC[C@H]1C(=O)N[C@@H](CCC(N)=O)C(=O)N1CCC[C@H]1C(=O)NCC(=O)N[C@@H](CCCCN)C(=O)N1CCC[C@H]1C(=O)N[C@@H](CCCNC(=N)N)C(=O)N1CCC[C@H]1C(=O)N[C@@H](CCC(N)=O)C(=O)N[C@@H](CCC(N)=O)C(=O)N[C@H](C(=O)N1CCC[C@H]1C(=O)N1CCC[C@H]1C(=O)N[C@@H](CCCNC(=N)N)C(=O)N1CCC[C@H]1C(=O)N1CCC[C@H]1C(=O)N[C@@H](Cc1c[nH]cn1)C(=O)N1CCC[C@H]1C(=O)N[C@@H](CCCNC(=N)N)C(=O)N[C@@H](CC(C)C)C(=O)O)C(C)C [PAB-GP, SRPSPQVPIRPSQPRPQPGKPRPQQVPPRPPHPRL] (H-SRPSPQVPIRPSQPRPQPGKPRPQQVPPRPPHPRL-OH)
Inhibition zones: in mm diameter (Enterobacter cloacae): 13 mm
Inhibition zones: in mm diameter (Salmonella typhimurium): 6 mm
Inhibition zones: in mm diameter (Klebsiella pneumoniae): 9 mm
Inhibition zones: in mm diameter (E. coli D22): 14 mm
Inhibition zones: in mm diameter [1]: 8 mm
Inhibition zones: in mm diameter [2]: 10 mm
Inhibition zones: in mm diameter (Erwinia amylovora): 5 mm
Inhibition zones: in mm diameter (Salmonella typhi): 13 mm
Inhibition zones: in mm diameter [3]: 9 mm
Inhibition zones: in mm diameter (Shigella dysenteriae): 11 mm
Inhibition zones: in mm diameter (Pseudomonas syringae): 6 mm

CC(C)C[C@H](NC(=O)[C@H](CCCNC(=N)N)NC(=O)[C@@H]1CCCN1C(=O)[C@H](Cc1c[nH]cn1)NC(=O)[C@@H]1CCCN1C(=O)[C@@H]1CCCN1C(=O)[C@H](CCCNC(=N)N)NC(=O)[C@@H]1CCCN1C(=O)[C@@H]1CCCN1C(=O)[C@@H](NC(=O)[C@H](CCC(N)=O)NC(=O)[C@H](CCC(N)=O)NC(=O)[C@@H]1CCCN1C(=O)[C@H](CCCNC(=N)N)NC(=O)[C@@H]1CCCN1C(=O)[C@H](CCCCN)NC(=O)[C@@H](N)Cc1ccccc1)C(C)C)C(=O)O [HoFP, F K P R P Q Q V P P R P P H P R L] (H-FKPRPQQVPPRPPHPRL-OH)
Inhibition zones: in mm diameter (Enterobacter cloacae): 14 mm
Inhibition zones: in mm diameter (Salmonella typhimurium): 12 mm
Inhibition zones: in mm diameter (Klebsiella pneumoniae): 14 mm
Inhibition zones: in mm diameter (E. coli D22): 16 mm
Inhibition zones: in mm diameter [1]: 11 mm
Inhibition zones: in mm diameter [2]: 13 mm
Inhibition zones: in mm diameter (Erwinia amylovora): 11 mm
Inhibition zones: in mm diameter (Salmonella typhi): 13 mm
Inhibition zones: in mm diameter (Shigella dysenteriae): 18 mm
Inhibition zones: in mm diameter (Pseudomonas syringae): 12 mm

CC(C)C[C@H](NC(=O)[C@H](CCCNC(=N)N)NC(=O)[C@@H]1CCCN1C(=O)[C@H](Cc1c[nH]cn1)NC(=O)[C@@H]1CCCN1C(=O)[C@@H]1CCCN1C(=O)[C@H](CCCNC(=N)N)NC(=O)[C@@H]1CCCN1C(=O)[C@@H]1CCCN1C(=O)[C@@H](NC(=O)[C@H](CCC(N)=O)NC(=O)[C@H](CCC(N)=O)NC(=O)[C@@H]1CCCN1C(=O)[C@@H](N)CCCNC(=N)N)C(C)C)C(=O)O [Ho -, Arg--Pro--Gln--Gln--Val--Pro--Pro--Arg--Pro--Pro--His--Pro--Arg--Leu] (H-RPQQVPPRPPHPRL-OH)
inhibition zone diameter (number of plus signs) (Enterobacter cloacae; [4]): + ((+) 5-6 mm)
inhibition zone diameter (number of plus signs) (Morganella morganii): ++ ((++) 7-9 mm)
minimal inhibitory concentration (MIC) (E. coli 11775; inoculum 16 × 10^6 CFU/ml): 10 to 20 µg/mL
minimal inhibitory concentration (MIC) (E. coli 11775; inoculum 1200 CFU/ml): 0.5 to 1 µg/mL
minimal inhibitory concentration (MIC) (Y. enterocolitica): 10 to 20 µg/mL
inhibition zone diameter (number of plus signs) (Salmonella typhimurium; [4]): + ((+) 5-6 mm)
inhibition zone diameter (number of plus signs) (Rhizobium meliloti): ++++ ((++++) 15-19 mm)
minimal inhibitory concentration (MIC) (A. calcoaceticus): > 20 µg/mL
inhibition zone diameter (number of plus signs) (Klebsiella pneumoniae; [4]): + ((+) 5-6 mm)
minimal inhibitory concentration (MIC) (E. coli 23802): > 40 µg/mL
minimal inhibitory concentration (MIC) (E. coli 25922): 10 to 20 µg/mL
minimal inhibitory concentration (MIC) (E. coli Apid^R; inoculum 12 × 10^6 CFU/ml): > 40 µg/mL
minimal inhibitory concentration (MIC) (E. coli Apid^R; inoculum 1000 CFU/ml): > 40 µg/mL
minimal inhibitory concentration (MIC) (S. typhimurium): 5 to 10 µg/mL
inhibition zone diameter (number of plus signs) (Yersinia enterocolitica): ++ ((++) 7-9 mm)
minimal inhibitory concentration (MIC) (M. morganii): 10 to 20 µg/mL
inhibition zone diameter (number of plus signs) [2, 4]: +++ ((+++) 10-14 mm)
inhibition zone diameter (number of plus signs) (Erwinia amylovora; [4]): ++ ((++) 7-9 mm)
inhibition zone diameter (number of plus signs) (Salmonella typhi; [4]): + ((+) 5-6 mm)
inhibition zone diameter (number of plus signs) (Shigella dysenteriae; [4]): + ((+) 5-6 mm)
inhibition zone diameter (number of plus signs) (Pseudomonas syringae; [4]): +++ ((+++) 10-14 mm)

SQPRPQPFKPRPQQVPPRTPHPR (SQPRPQPFKPRPQQVPPRTPHPR) [PAB-FT 12-35]
Inhibition zones: in mm diameter (Enterobacter cloacae): 11 mm
Inhibition zones: in mm diameter (Klebsiella pneumoniae): 6 mm
Inhibition zones: in mm diameter (E. coli D22): 10 mm
Inhibition zones: in mm diameter [2]: 10 mm
Inhibition zones: in mm diameter (Salmonella typhi): 5 mm
Inhibition zones: in mm diameter (Shigella dysenteriae): 11 mm

QVPIRPSQPRPQPFKPRPQQVPPRTPHPR (QVPIRPSQPRPQPFKPRPQQVPPRTPHPR) [PAB-FT 6-35]
Inhibition zones: in mm diameter (Enterobacter cloacae): 12 mm
Inhibition zones: in mm diameter (Salmonella typhimurium): 8 mm
Inhibition zones: in mm diameter (Klebsiella pneumoniae): 11 mm
Inhibition zones: in mm diameter (E. coli D22): 14 mm
Inhibition zones: in mm diameter [2]: 13 mm
Inhibition zones: in mm diameter (Salmonella typhi): 14 mm
Inhibition zones: in mm diameter [3]: 10 mm
Inhibition zones: in mm diameter (Shigella dysenteriae): 12 mm
